Here are results for 19 compounds from US20050107432A1, “Sigma receptor binder containing indanone derivative” (priority 2002, published 2005).

Structures can show the parent of a compound that is named as a salt.

For one assay, the target named is T1, acetylcholinesterase (Rattus norvegicus, UniProt P37136).
T1 construct: from tissue; host or cells: rat brain homogenate
T1 sequence (P37136 32-614): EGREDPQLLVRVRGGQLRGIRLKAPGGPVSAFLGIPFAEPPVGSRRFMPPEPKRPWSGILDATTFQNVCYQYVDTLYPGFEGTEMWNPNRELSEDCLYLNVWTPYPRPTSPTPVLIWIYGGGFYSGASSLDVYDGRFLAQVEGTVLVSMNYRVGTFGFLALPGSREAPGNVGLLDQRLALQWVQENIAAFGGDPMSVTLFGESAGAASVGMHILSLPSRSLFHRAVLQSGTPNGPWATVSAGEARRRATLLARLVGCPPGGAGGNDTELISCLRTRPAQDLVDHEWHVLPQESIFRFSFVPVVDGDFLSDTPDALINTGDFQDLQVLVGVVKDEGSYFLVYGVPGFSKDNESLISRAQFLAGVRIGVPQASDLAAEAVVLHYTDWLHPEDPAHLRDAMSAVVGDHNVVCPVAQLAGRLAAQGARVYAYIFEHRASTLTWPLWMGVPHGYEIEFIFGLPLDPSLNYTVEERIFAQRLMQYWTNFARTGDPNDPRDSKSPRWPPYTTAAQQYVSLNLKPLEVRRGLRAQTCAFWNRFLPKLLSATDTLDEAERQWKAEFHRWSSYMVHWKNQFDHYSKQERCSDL
Briefly: Inhibitory effect on acetylcholinesterase (Ellman method, rat brain homogenate). Format: biochemical. To be noted: rat brain homogenate as source of acetylcholinesterase; read-out: Acetylcholinesterase inhibition IC50. How it is done: Inhibitory Effect on Acetylcholinesterase
To DTNB (5,5′-dithiobis(2-nitrobenzoic acid)), acethylthiocholine (as a substrate) and a test compound was added the rat brain homogenate and incubated.

In assay [1] the target is Sigma receptor. In words: Sigma receptor binding assay (3H-DTG, guinea pig brain crude membrane fraction). To be noted: for IC50: inhibition of 3H-DTG binding to guinea pig brain crude membrane fraction, 25° C., 1 hour; for sigma receptor binding action: result in words, no value given. The method, then: Sigma Receptor Binding Assay
(1) Preparation of Receptor
Ten male guinea pigs (Crj, Hartley, from Charles River Japan, Inc.) (body weight: 234 g to 260 g) were decapitated, exsanguinated and died. The brain was immediately removed, homogenized with ten volumes of 50 mM Tris-HCl (pH 7.4) using a Teflon homogenizer and was centrifuged at a rate of 50000× g at 4° C. for 20 minutes. The washing procedure was repeated once more under the same conditions, and the resulting crude membrane fraction was subjected to the assay.
The filter paper was transferred to a vial for radioactivity measurement, mixed with 5 mL of a liquid scintillation cocktail (Atomlight, from PACKARD), and the radioactivity on the filter was determined by a liquid scintillation counter (Model 1500, from PACKARD) for 2 minutes. The specific binding and the non-specific binding in the absence of the test compound were determined in the same way as above except for using 50% DMSO solution instead of the test compound and using a 100 μM Haloperidol solution instead of the test compound, respectively.
(3) Determination of Inhibition
The inhibitions of the test compound at individual concentrations were determined from the ratio of the specific binding in the presence of the test compound to the specific binding in the absence thereof. The dose-response curve was regressed according to a logit-log model in which the ratio of the specific binding in the presence of the test compound to the specific binding in the absence thereof was subjected to logit transformation and plotted against the common logarithm value of each concentration.

Assay [2] concerns sigma receptor. Particulars: disclosed in J. Med. Chem. 37, 364 (1994), Neuroscience Lett. 260, 5 (1999), JP-A 11-349481; cited from earlier work.

Take `CCOc1cc2c(cc1OCC)C(=O)C(CC1CCN(Cc3cccc(F)c3)CC1)C2` (stereo not shown) [Example 9, 1-(3-fluorobenzyl)-4-[(5,6-diethoxy-1-indanon)-2-yl]methylpiperidine hydrochloride]: the IC50 (as a rule, the concentration needed to halve the response being measured) on acetylcholinesterase stood at 3.4 nM.

For `COc1cc2c(cc1OCC#N)CC(CC1CCN(Cc3ccccc3)CC1)C2=O` (stereo not shown) [Example 7, 1-benzyl-4-[(5-cyanomethoxy-6-methoxy-1-indanon)-2-yl]methylpiperidine hydrochloride], the IC50 on acetylcholinesterase came to 2.4 nM.

`CCOc1cc2c(cc1OC)CC(F)(CC1CCN(Cc3ccccc3)CC1)C2=O` (stereo not shown) [Example 37, 1-benzyl-4-[(6-ethoxy-2-fluoro-5-methoxy-1-indanon)-2-yl]methylpiperidine hydrochloride]: the concentration for half-maximal inhibition (IC50) at Sigma receptor [1] was 4.3 nM; on acetylcholinesterase, 0.73 nM.

As to `CCOc1cc2c(cc1OCC)C(=O)C(CC1CCN(Cc3cccc(C)c3)CC1)C2` (stereo not shown) [Example 15, 1-(3-methylbenzyl)-4-[(5,6-diethoxy-1-indanon)-2-yl]methylpiperidine hydrochloride], on acetylcholinesterase, the half-maximal inhibitory concentration (IC50) turned out to be 9.1 nM.

In the case of `CCOc1cc2c(cc1OCC)C(=O)C(F)(CC1CCN(Cc3cccc(C)c3)CC1)C2` (stereo not shown) [Example 47, 1-(3-methylbenzyl)-4-[(5,6-diethoxy-2-fluoro-1-indanon)-2-yl]methylpiperidine hydrochloride], the IC50 at acetylcholinesterase came out at 1 nM.

Regarding `CCOc1cc2c(cc1OC)CC(CC1CCN(Cc3ccccc3)CC1)C2=O` (stereo not shown) [Example 1, 1-benzyl-4-[(6-ethoxy-5-methoxy-1-indanon)-2-yl]methylpiperidine hydrochloride], the IC50 on Sigma receptor [1] came to 5.1 nM; at acetylcholinesterase, 7.2 nM.

`CCOc1cc2c(cc1OC)C(=O)C(F)(CC1CCN(Cc3ccccc3)CC1)C2` (stereo not shown) [Example 38, 1-benzyl-4-[(5-ethoxy-2-fluoro-6-methoxy-1-indanon)-2-yl]methylpiperidine hydrochloride]: the IC50 at acetylcholinesterase worked out at 0.28 nM.

Turning to `CCOc1cc2c(cc1OCC)C(=O)C(F)(CC1CCN(Cc3cccc(Cl)c3)CC1)C2` (stereo not shown) [Example 44, 1-(3-chlorobenzyl)-4-[(5,6-diethoxy-2-fluoro-1-indanon)-2-yl]methylpiperidine hydrochloride], the 50% inhibitory concentration (IC50) at acetylcholinesterase worked out at 0.75 nM.

For the compound `COc1cc2c(cc1OC)C(=O)C(CC1CCN(Cc3ccccc3)CC1)C2` (stereo not shown) [1-benzyl-4-[(5,6-dimethoxy-1-indanon)-2-yl]methylpiperidine], the “sigma receptor binding action” value with sigma receptor [2] is given as “has a sigma receptor binding action”.

For `COc1cc2c(cc1OC)C(=O)C(CCC1CCN(Cc3ccccc3)CC1)C2.Cl` (stereo not shown) [Example 32, 1-Benzyl-4-[2-[(5,6-dimethoxy-1-indanon)-2-yl]ethyl]piperidine hydrochloride], the “sigma receptor binding action” value in the assay on Sigma receptor [1] is “found to have a sigma receptor binding action”.

In the case of `COc1cc2c(cc1OC)C(=O)C(Cl)(CC1CCN(Cc3ccccc3)CC1)C2.Cl` (stereo not shown) [Example 67, 1-Benzyl-4-[(5,6-dimethoxy-2-chloro-1-indanon)-2-yl]methylpiperidine hydrochloride], the “sigma receptor binding action” value in the assay with Sigma receptor [1] was “found to have a sigma receptor binding action”.

`COc1cc2c(cc1OC)C(=O)C(F)(CC1CCN(Cc3ccccc3F)CC1)C2.Cl` (stereo not shown) [Example 62, 1-(2-Fluorobenzyl)-4-[(5,6-dimethoxy-2-fluoro-1-indanon)-2-yl]methylpiperidine hydrochloride]: the “sigma receptor binding action” value in the assay with Sigma receptor [1] is “found to have a sigma receptor binding action”.

Turning to `COc1cc2c(cc1OC)C(=O)C(C1CCN(Cc3ccccc3)CC1)C2` (stereo not shown) [1-benzyl-4-(5,6-dimethoxy-1-indanon)-2-yl]piperidine], the “sigma receptor binding action” value in the assay on sigma receptor [2] was “has a sigma receptor binding action”.

In the case of `COc1cc2c(cc1OC)C(=O)C(F)(CC1CCN(Cc3ccc(F)cc3)CC1)C2.Cl` (stereo not shown) [Example 64, 1-(4-Fluorobenzyl)-4-[(5,6-dimethoxy-2-fluoro-1-indanon)-2-yl]methylpiperidine hydrochloride], the “sigma receptor binding action” value with Sigma receptor [1] is “found to have a sigma receptor binding action”.

Regarding `CCCOc1cc2c(cc1OC)C(=O)C(CC1CCN(Cc3ccccc3)CC1)C2` (stereo not shown) [Example 2, 1-benzyl-4-[[5-methoxy-6-(1-propyloxy)-1-indanon]-2-yl]methylpiperidine hydrochloride], at acetylcholinesterase, the IC50 came to 2.7 nM.

As to `O=C1c2ccc(C3CCCCC3)cc2CC1CC1CCN(Cc2ccccc2)CC1` (stereo not shown) [Example 22, hydrochloride], the IC50 on Sigma receptor [1] was found to be 1.3 nM.

For the compound `CCOc1cc2c(cc1OCC)C(=O)C(F)(CC1CCN(CC3CCCCC3)CC1)C2` (stereo not shown) [Example 50, 1-cyclohexylmethyl-4-[(5,6-diethoxy-2-fluoro-1-indanon)-2-yl]methylpiperidine hydrochloride], the IC50 on acetylcholinesterase was 1.9 nM.

For `COc1ccc2c(c1)CC(CC1CCN(Cc3ccccc3)CC1)C2=O.Cl` (stereo not shown) [Example 28, 1-Benzyl-4-[(5-methoxy-1-indanon)-2-yl]methylpiperidine hydrochloride], on Sigma receptor [1], the IC50 worked out at 2.3 nM and the “sigma receptor binding action” value is recorded as “found to have a sigma receptor binding action”.

For the compound `COc1cc2c(cc1OC)C(=O)C(F)(CC1CCN(Cc3ccccc3)CC1)C2.Cl` (stereo not shown) [Example 56, 1-Benzyl-4-[(5,6-dimethoxy-2-fluoro-1-indanon)-2-yl]methylpiperidine hydrochloride], the “sigma receptor binding action” value in the assay with Sigma receptor [1] is recorded as “found to have a sigma receptor binding action”.
